“And” between values parts separate entries of the source, which are not always exact repeats. Identical values can stand only once.
Tests used:
TGF-beta 1 = experiment: Dermal TGFb1 levels (ELISA) after linear incisional wounds in minipigs; assay type: in vivo, Gottingen Minipigs; conditions: approximately 16 mg intradermally once per incisional wound, biopsies days 4, 7, 9 post-dosing
Text: The purpose of this study was to evaluate the topical effects of axitinib, nintedanib, sorafenib and lenvatinib when administered via intradermal injection to the dorsal skin along linear incisions of minipigs. Linear incisional wound was made to elicit inflammatory and wound healing process in the skin. After dosing, mammals were observed post dose for 9 days to assess the levels of TGFb1 expressions in the skin.
Three male Gottingen Minipigs® dosed once via intradermal injection along the edges of each of the linear incision wound sites for each mammal (wounds on the dorsum, perpendicular to the spine, approximately 3 cm in length and 3 cm distance from the spine). Each incisional wound received approximately 16 mg of the test compound intradermally once along both sides of the linear wound.
On days of 4, 7, and 9 post-dosing, one 4 mm dermal punch biopsy was collected for each incisional wound and processed for TGF-beta 1 analysis with ELISA, using a commercial kit (e.g., the kit from Thermo Fisher or other vendors).

TGF beta1 mRNA = TGF beta1 mRNA expression (qRT-PCR) in rabbit ear hypertrophic scar model; assay type: in vivo, New Zealand white rabbits; conditions: 1% w/w, 100 μl intradermal on days 15 and 29, harvest Day 43
Experimental: The objective of this study was to examine the effect of test compounds on wound healing and TGF beta expression after dermal injury in a rabbit ear hypertrophic scar model.
In New Zealand white rabbits, maintained under a surgical plane of anesthesia, trauma stimulation of the skin on the ventral surface of both ears is initiated on Day 1. Trauma sites are evaluated on Days 8, 15, 22, 29, 36, and 43. On days 15 and 29, each site is dosed with test compounds (e.g., 1% w/w, 100 μl) by intradermal or intralesional injections.
Mammals are euthanized on Day 43, and the trauma sites are harvested and frozen for TGF beta analysis using quantitative RT-PCR (qRT-PCR) (e.g., A. K. Johnson et al., Dev. Comp. Immunol., 2006; 30(5): 473-84). TGF beta1 mRNA expression levels in treated trauma samples are compared to the expression level in the untreated trauma sample.

TGF-β1 mRNA = TGF-β1 mRNA expression (qRT-PCR) in Yucatan pig skin wound sites; assay type: in vivo, Yucatan minipigs; conditions: Yucatan pig skin wound sites after treatments; for TGF-β1 mRNA Expression Fold Relative to Untreated Unwounded Control: individual animals 7369, 7370, 7371, duplicate sets 1 and 2, beta actin reference gene
Text: (§1) In this experiment, multiple full-thickness excision wounds were made to the dorsum of Yucatan minipigs, and the wound sites were allowed to be re-epithelialized adequately. At four weeks post-wound, the wound sites had normal to pink vascularity and had pliability. Epidermal hyperplasia was observed, as expected for regenerative responses in the full-thickness wounds.
(§2) On Day 28 post-wound, a dose (e.g., 1%) of axitinib, nintedanib, riociguat, sorafenib, sunitinib, and/or lenvatinib was administered into the dermal tissue at or around the wound sites, once every two weeks on two occasions. One wound site was left untreated as the control for each pig. Please note that the particular parameters in this example are only for illustration. One skilled in the art would appreciate that the dosages, administration methods, treatment regimen, and the administration sites may be varied to achieve similar results.
In addition, total mRNA was isolated from skin biopsies of the treated wound sites and the untreated unwounded sites of the pigs. The mRNA samples were used to prepare cDNA and analyzed via qRT-PCR. The TGF-β1 expression levels were assessed using beta actin as a reference gene.

[1] = test system: suture-induced ocular fibrosis; experiment: Rabbit corneal suture-induced ocular fibrosis model; assay type: in vivo, rabbits; conditions: 0.3% w/v eyedrops 35 uL three times daily for 10 days
Text: In order to investigate the anti-fibrotic effect of test compounds following wounding in the eye, a suture-induced ocular fibrosis model was used. Suture was placed intrastromally under a microscope in the cornea of rabbits. In each eye, one 9.0 silk suture was placed, in a vertical position, temporal to the corneal center and a second suture was placed nasal to the corneal center. Each suture had two stromal incursions approximately 2 mm from the limbus. Test compounds having certain spectrum of multikinase inhibition activities and/or vehicle were topically instilled (35 uL/eye) in the eyes three times daily for 10 days the day following surgery. The treatment groups include vehicle, nintedanib (0.3%, w/v), pirfenidone (1%, w/v), riociguat (0.3%, w/v), sorafenib (0.3%, w/v) and lenvatinib (0.3%, w/v). Six left eyes were used per treatment group.
The animals were sacrificed on Day 11 and the eyes enucleated and dissected for histopathological evaluation.

[2] = test system: benign prostate hyperplasia; experiment: Testosterone and phenylephrine induced benign prostate hyperplasia in rats; assay type: in vivo, Wistar rats; design: key to epithelial hyperplasia score, dorsolateral prostate, representative image / epithelial hyperplasia score, ventral prostate, representative image: severity grade 0 = not present to 5 = severe; conditions: TE and PE induced rats; for epithelial hyperplasia score, dorsolateral prostate, representative image / epithelial hyperplasia score, ventral prostate, representative image: intra-prostate injection 0.4 ml on days 1 and 18 (1% w/w; doxazosin mesylate 0.5%), severity grade 0 (not present) through 5 (severe), induced vehicle score=4; for glandular hyperplasia compared to untreated TE/PE induced prostates: intra-prostate injection on days 1 and 18
Experimental: BPH is a true hyperplastic process. Histologic studies have documented an increase in cell number. A study was conducted, therefore, to determine the effects of test compounds and vehicle on testosterone (TE) and phenylephrine (PE) induced benign prostate hyperplasia in rats. Male Wistar rats were induced with testosterone (2 mg/kg) plus phenylephrine (5 mg/kg) administered daily by subcutaneous injection on days 5 through 32. Vehicle or test compounds (all at 1% w/w), nintedanib, sunitinib, lenvatinib, and 0.5% doxazosin mesylate, were administered by intra-prostate injection (0.4 ml) in dorsolateral and ventral lobes on days 1 and 18. Animals were euthanized on day 32. Body weights were determined and prostate glands were harvested. The experimental design is outlined in Table 6.
At necropsy, the ventral and dorsolateral lobes of the prostate were separated and then cut into halves. The left halves were fixed in 10% neutral buffered formalin, sectioned, and stained with Hematoxylin and Eosin (H&E). Histological changes in these sections were scored. Epithelial hyperplasia was recognized as an increase in epithelial cells within normal-appearing gland profiles, primarily reflected by stratification of epithelial cells and increased presence of epithelial tufting and papillary projections. A severity grade of 0 (not present) through 5 (severe) was assigned to each sample.

[3] = test system: full-thickness excision wounds; experiment: Histology of full-thickness excision wounds in Yucatan minipigs (fibroplasia, neovascularization); assay type: in vivo; conditions: for Neovascularization; dermis, average score / Fibroplasia; dermis, average score: Yucatan minipig wound sites after two doses, Day 59, scale 1 (minimal) to 5 (severe); for Neovascularization; dermis, average score: untreated 2.33; for Fibroplasia; dermis, average score: untreated 3.33
Text: as §1, §2
On Day 59 post wound, the minipigs were sacrificed and dermal tissues were collected for qualitative and quantitative evaluation using hematoxylin and eosin, and Mason's Trichrome staining. Dermal fibroplasia was characterized by increased numbers of fibroblasts in the dermis suspended in variable amounts of collagen in wounds.

| SMILES | suppression of dermal TGF beta 1 expression over time (TGF-beta 1) | mean folds of TGF beta mRNA expression versus untreated wound sample (TGF beta1 mRNA) | TGF-β1 mRNA Expression Fold Relative to Untreated Unwounded Control (TGF-β1 mRNA) | alpha SMA (smooth muscle actin) staining by immunohistochemistry [1] | areas of neovascularization on the corneal surface [1] | fibroplasia and/or collagen density by histological staining [1] | epithelial hyperplasia score, dorsolateral prostate, representative image [2] | epithelial hyperplasia score, ventral prostate, representative image [2] | glandular hyperplasia compared to untreated TE/PE induced prostates [2] | Neovascularization; dermis, average score [3] | Fibroplasia; dermis, average score [3] | reduction of TGF-β1 mRNA expression levels at treated wounds (TGF-β1 mRNA) | neovascularization and dermal fibroplasia relative to the untreated wound ([3]; Yucatan minipig, two biweekly treatments) |
| --- | --- | --- | --- | --- | --- | --- | --- | --- | --- | --- | --- | --- | --- |
| COc1cc2nccc(Oc3ccc(NC(=O)NC4CC4)c(Cl)c3)c2cc1C(N)=O [lenvatinib] | very effective in suppressing the expression of TGF beta 1 | lower than the expression level in the untreated wound sample | 2.27 fold and 0.62 fold and 0.89 fold and 0.38 fold and 0.69 fold and 2.02 fold | significantly reduced alpha SMA (smooth muscle actin) staining | efficacious in reducing the areas of neovascularization | significantly reduced fibroplasia and/or collagen density | 2 | 3 | demonstrated reduction of glandular hyperplasia | (2.33) | (3.00) |  |  |
| COC(=O)c1ccc2c(c1)NC(=O)/C2=C(\Nc1ccc(N(C)C(=O)CN2CCN(C)CC2)cc1)c1ccccc1 [nintedanib] | very effective in suppressing the expression of TGF beta 1 | lower than the expression level in the untreated wound sample | 0.70 fold and 0.66 fold and 0.55 fold and 0.56 fold and 0.63 fold and 0.87 fold | significantly reduced alpha SMA (smooth muscle actin) staining | efficacious in reducing the areas of neovascularization | significantly reduced fibroplasia and/or collagen density | 3 | 3 | demonstrated reduction of glandular hyperplasia | (1.67) | (2.33) | most effective | noticeably reduced neovascularization with a corresponding reduced dermal fibroplasia |
| CNC(=O)c1cc(Oc2ccc(NC(=O)Nc3ccc(Cl)c(C(F)(F)F)c3)cc2)ccn1 [sorafenib] | not as effective | lower than the expression level in the untreated wound sample | 0.84 fold and 0.60 fold and 0.53 fold and 0.43 fold and 0.55 fold and 0.89 fold |  | inhibition of corneal neovascularization |  |  |  |  | (2.33) | (3.00) | most effective |  |

— US12502391B2, “Multi-kinase inhibitors of VEGF and TGF beta and uses thereof” (AIVIVA BIOPHARMA, INC., priority 2018, dated 2025)
